Measured values reported in PubChem BioAssay (NCI).
“And” between values parts separate entries of the source, which are not always exact repeats. Identical values can stand only once.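 Protocol summary: plate cells (96-well), add compound at 5 concentrations, incubate 48 h, interpolate endpoints linearly. GI50 is the concentration that inhibits growth by half. TGI is the concentration that stops growth completely.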

Tests used:
Assay in all cases: inhibition of tumour cell growth, NCI panel, 48 h
SR leukemia = test system: SR leukemia
IGROV1 ovarian = test system: IGROV1 ovarian
HL-60(TB) leukemia = test system: HL-60(TB) leukemia
CCRF-CEM leukemia = test system: CCRF-CEM leukemia
MALME-3M melanoma = test system: MALME-3M melanoma
MOLT-4 leukemia = test system: MOLT-4 leukemia
OVCAR-4 ovarian = test system: OVCAR-4 ovarian
SF-539 CNS = test system: SF-539 CNS
A549 NSCLC = test system: A549 NSCLC
HOP-92 NSCLC = test system: HOP-92 NSCLC
DU-145 prostate = test system: DU-145 prostate
MDA-N = test system: MDA-N

| Compound | TGI (SR leukemia) [µM] | TGI (IGROV1 ovarian) | TGI (HL-60(TB) leukemia) [µM] | TGI (CCRF-CEM leukemia) [µM] | TGI (MALME-3M melanoma) | TGI (MOLT-4 leukemia) [µM] | TGI (OVCAR-4 ovarian) [µM] | TGI (SF-539 CNS) | TGI (A549 NSCLC) | TGI (HOP-92 NSCLC) [µM] | TGI (DU-145 prostate) | TGI (MDA-N) | GI50 (MDA-N) | GI50 (IGROV1 ovarian) | GI50 (HL-60(TB) leukemia) | GI50 (OVCAR-4 ovarian) [µM] | GI50 (SF-539 CNS) | GI50 (MOLT-4 leukemia) [µM] |
| --- | --- | --- | --- | --- | --- | --- | --- | --- | --- | --- | --- | --- | --- | --- | --- | --- | --- | --- |
| Cc1ccccc1Nc1nc2ccccc2nc1NS(=O)(=O)c1ccccc1 | > 100 | > 100 µM | > 100 | > 100 | > 100 µM | > 100 | > 100 | > 100 µM | > 100 µM | > 100 |  |  |  |  |  |  |  |  |
| CN(/N=C\c1ccc2ccccc2c1)C1=NCCCN1 | > 100 | 23.3 µM | 37.4 | 48.6 | 26.4 µM | 8.93 | > 100 | 40.3 µM | 24.7 µM | 14.5 | > 100 µM |  |  |  |  |  |  |  |
| c1cc2c(cc1[C@@H]1OC[C@@H]3[C@H]1CO[C@H]3c1ccc3c(c1)OCO3)OCO2 |  | > 100 µM | > 100 | > 100 | > 100 µM | > 100 | > 100 | > 100 µM | > 100 µM | > 100 | > 100 µM | > 100 µM |  |  |  |  |  |  |
| CC(CC=O)Nc1nn2c(=O)c3ccccc3nc2s1 (stereo unspecified) | > 100 | > 100 µM |  | > 100 | > 100 µM | > 100 | > 100 | > 100 µM | > 100 µM | > 100 | > 100 µM |  |  |  |  |  |  |  |
| CC(=O)C(C(C)=O)[C@H]1OC(C)(C)O[C@H]1[C@H]1COC(C)(C)O1 |  | > 100 µM |  | > 100 | > 100 µM | > 100 | > 100 | 41.5 µM | > 100 µM | > 100 | > 100 µM | > 100 µM |  |  |  |  |  |  |
| C[n+]1c2ccccc2c(C(=O)Nc2ccc(S(=O)(=O)Nc3ncccn3)cc2)c2ccccc21 | > 100 | > 100 µM |  |  | > 100 µM | > 100 | > 100 | > 100 µM | > 100 µM |  | > 100 µM | > 100 µM |  |  |  |  |  |  |
| COc1cccc(N=NN2CCCC2)c1 | > 100 | > 100 µM | > 100 | > 100 |  | > 100 | > 100 | > 100 µM |  | > 100 | > 100 µM | > 100 µM |  |  |  |  |  |  |
| CCOC(=O)c1c(-c2ccccc2)c(C)cn1C | > 10 | > 10 µM |  | > 10 |  | > 10 | > 10 | > 10 µM | > 10 µM | > 10 | > 10 µM | > 10 µM |  |  |  |  |  |  |
| CCOC(=O)c1cn(CC)c2ccc3c(c2c1=O)S(=O)(=O)C=C3 |  | > 100 µM | > 100 | > 100 | > 100 µM | > 100 | > 100 | > 100 µM | > 100 µM | > 100 | > 100 µM | > 100 µM |  |  |  |  |  |  |
| COC(=O)C(=O)C(C(=O)C(=O)Nc1ccc(C)c(C)c1)c1nc2ccc([N+](=O)[O-])cc2[nH]c1=O (stereo unspecified) | > 100 | > 100 µM | > 100 | > 100 | > 100 µM | > 100 | > 100 | > 100 µM | > 100 µM | > 100 |  | > 100 µM |  |  |  |  |  |  |
| c1ccc(Nc2nnc(CCCCCCCCc3nnc(Nc4ccccc4)o3)o2)cc1 |  | > 100 µM | > 100 | > 100 | > 100 µM | > 100 | > 100 | > 100 µM | > 100 µM |  | > 100 µM |  |  |  |  |  |  |  |
| CSc1nc[nH]c1C(N)=S |  | > 100 µM | > 100 |  | > 100 µM | > 100 |  | > 100 µM | > 100 µM |  | > 100 µM | > 100 µM |  |  |  |  |  |  |
| Cc1nc(Cc2n[nH]c(C)n2)n[nH]1 | > 100 | > 100 µM |  | > 100 |  | > 100 | > 100 | > 100 µM | > 100 µM | > 100 | > 100 µM | > 100 µM |  |  |  |  |  |  |
| NC(N)=NCCCC(NC(=O)c1c2ccccc2nc2ccccc12)C(=O)O (stereo unspecified) | > 100 | > 100 µM |  | > 100 |  | > 100 | > 100 | > 100 µM | > 100 µM | > 100 | > 100 µM | > 100 µM |  |  |  |  |  |  |
| CC(=O)N[C@@H](Cc1ccc(O)cn1)C(=O)NC1CCCCC1 | > 100 | > 100 µM |  | > 100 |  | > 100 | > 100 | > 100 µM | > 100 µM | > 100 | > 100 µM | > 100 µM |  |  |  |  |  |  |
| COC(=O)[C@@H]1COC(=O)N1 |  | > 100 µM | > 100 | > 100 | > 100 µM | > 100 | > 100 | > 100 µM | > 100 µM | > 100 | > 100 µM | > 100 µM |  |  |  |  |  |  |

| Compound | TGI (SR leukemia) [µM] | TGI (IGROV1 ovarian) | TGI (HL-60(TB) leukemia) [µM] | TGI (CCRF-CEM leukemia) [µM] | TGI (MALME-3M melanoma) | TGI (MOLT-4 leukemia) [µM] | TGI (OVCAR-4 ovarian) [µM] | TGI (SF-539 CNS) | TGI (A549 NSCLC) | TGI (HOP-92 NSCLC) [µM] | TGI (DU-145 prostate) | TGI (MDA-N) | GI50 (MDA-N) | GI50 (IGROV1 ovarian) | GI50 (HL-60(TB) leukemia) | GI50 (OVCAR-4 ovarian) [µM] | GI50 (SF-539 CNS) | GI50 (MOLT-4 leukemia) [µM] |
| --- | --- | --- | --- | --- | --- | --- | --- | --- | --- | --- | --- | --- | --- | --- | --- | --- | --- | --- |
| Clc1ccc(C2=NCON=C2c2ccc(Cl)cc2)cc1 |  |  | 30.9 | 53.1 | 27.7 µM | 42.9 | > 100 | 35.5 µM | > 100 µM | 43.5 | > 100 µM | 56.5 µM |  |  |  |  |  |  |
| CC[C@]1(Cc2ccc(OC)c(OC)c2)C=[N+]([O-])O[C@H](OC2CCCC2(c2ccccc2)c2ccccc2)[C@@H]1OC(=O)C(C)(C)C (stereo partly specified) | > 100 | 9 µM | 8.1 | > 40.3 |  | > 100 | 14.1 |  | > 36.6 µM | 18.2 | 4.45 µM |  |  |  |  |  |  |  |
| Cc1ccc(-n2cc(-c3ccc(Cl)cc3)c3c(=N)n(N)cnc32)cc1 |  | 24.5 µM | 31.7 | 51.4 | 26.1 µM |  | 22.5 | 27 µM | 29 µM | 21.6 | 34.5 µM | 23.8 µM |  |  |  |  |  |  |
| CC[C@@]1(O)C(=O)OCc2c1cc1n(c2=O)Cc2c-1nc1ccccc1c2C=Nc1ccccc1N[C@@H]1c2cc3c(cc2[C@@H](c2cc(OC)c(O)c(OC)c2)[C@H]2C(=O)OC[C@@H]21)OCO3 |  | 12.4 µM and 7.63 µM | > 100 | > 100 | 25.6 µM and 3.78 µM |  | > 62.6 | 0.239 µM | 7.62 µM | > 100 | 0.0979 µM and 0.0432 µM | 28 µM and 3.12 µM | 0.616 µM and 0.183 µM | 0.544 µM and 0.22 µM | 0.0325 µM and 0.192 µM | 17.2 | 0.0228 µM and < 0.005 µM |  |
| O=C(O)CCC1NC(/C(=C/c2ccccc2O)NC(=O)c2ccccc2)OC1=O (stereo unspecified) |  | > 100 µM | > 100 | > 100 | > 100 µM | > 100 | > 100 | > 100 µM | > 100 µM | > 100 | > 100 µM |  |  |  |  |  |  |  |
| CC[C@@]12CCC(=S)N(CCSc3ccccc3)[C@@H]1c1c(n(S(=O)(=O)c3ccc(OC)cc3)c3ccccc13)CC2 | > 100 | > 100 µM | > 100 | > 100 | > 100 µM | > 100 |  | > 100 µM | > 100 µM | > 100 | > 100 µM |  |  |  |  |  |  |  |
| Cc1cc2occ(S(=O)(=O)NC(=O)Nc3ccc(Cl)cc3)c(=O)c2c(=O)o1 |  | > 100 µM | > 100 | > 100 | > 100 µM | > 100 | > 100 | > 100 µM | > 100 µM | > 100 | > 100 µM | > 100 µM |  |  |  |  |  |  |
| N#Cc1c(N)nc(Sc2ccccc2N)c(C#N)c1-c1ccccc1 | > 100 | > 100 µM |  |  | 46.2 µM | > 100 | > 100 | 80.1 µM | > 100 µM | 64.3 | 52.3 µM |  |  |  |  |  |  |  |
| S=c1[nH]nc(CCCCCCCCc2n[nH]c(=S)o2)o1 |  | > 100 µM | > 100 | > 100 |  | > 100 | > 100 | > 100 µM | > 100 µM |  | > 100 µM | > 100 µM |  |  |  |  |  |  |
| CC(=O)N1c2cc(N=NN(C)C)ccc2NC(=O)CC1C (stereo unspecified) |  | > 100 µM | > 100 | > 100 | > 100 µM | > 100 | > 100 |  | > 100 µM |  | > 100 µM | > 100 µM |  |  |  |  |  |  |
| Cc1ncc(CSC(=N)N)n1Cc1ccccc1 |  | > 100 µM |  |  | > 100 µM |  | > 100 | > 100 µM | > 100 µM | > 100 | > 100 µM | > 100 µM |  |  |  |  |  |  |
| COc1ccc(C23OCC(Cc4cc(OC)c(OC)cc42)C3CO)cc1OC (stereo unspecified) | > 100 |  | > 100 |  | > 100 µM | > 100 | > 100 | > 100 µM | > 100 µM |  | > 100 µM |  |  |  |  |  |  |  |
| CCCCCCCCCCCCC1N=C(N)NC2(CCCO2)C1C(=O)OC (stereo unspecified) | > 20.9 | 6.72 µM |  | 5.83 | 38 µM | 5.3 | 26.4 | 15.8 µM | 30.9 µM | 17.2 | 33.2 µM |  |  |  |  |  |  |  |
| COC(=O)c1ccccc1C1CN=NC12Cc1c(C)ccc(C)c1C2=O (stereo unspecified) |  | > 100 µM | > 100 | > 100 | > 100 µM | > 100 | > 100 | > 100 µM | > 100 µM | > 100 | > 100 µM | > 100 µM |  |  |  |  |  |  |
| CCC(=C/[C@H](C)C/C=C/C(C)=C/[C@@H](C)C(=O)[C@@H](C)[C@H](O)[C@@H](C)CC)/C=C/[C@H]1CC=CC(=O)O1 |  | 3.96 µM and 10.4 µM | 0.0126 | 0.179 | 2.31 µM |  | 12 | 0.174 µM and 1.35 µM | 6.32 µM and 13.5 µM | 4.26 | < 0.0012 µM | 0.00339 µM |  |  |  |  |  | < 0.0012 |
